For one assay, the target named is BCL2/BCL2L11 (Homo sapiens, UniProt P10415). Kind of assay: Inhibition of his-tagged human recombinant Bcl-2 expressed in Escherichia coli /human Bim measured for 60 mins by TR-FRET based LanthaScreen Eu-Kinase binding assay. (Time-resolved FRET reads energy transfer from a long-lived donor to a nearby acceptor.)
Assay [1] has as its target T1, Induced myeloid leukemia cell differentiation protein Mcl-1 (Homo sapiens, UniProt Q07820). The experiment in a line: Binding affinity to N-terminal his6-tagged human recombinant Mcl-1 expressed in Escherichia coli assessed as dissociation constant by SPR analysis.
The target in assay [2] is Induced myeloid leukemia cell differentiation protein Mcl-1/Bcl-2-like protein 11 (Homo sapiens, UniProt Q07820). Kind of assay: Inhibition of N-terminal GST-tagged human recombinant Mcl-1 expressed in Escherichia coli /human Bim measured for 60 mins by TR-FRET based LanthaScreen Eu-Kinase binding assay.
Induced myeloid leukemia cell differentiation protein Mcl-1/Bcl-2-like protein 11, sequence (Q07820 whole entry): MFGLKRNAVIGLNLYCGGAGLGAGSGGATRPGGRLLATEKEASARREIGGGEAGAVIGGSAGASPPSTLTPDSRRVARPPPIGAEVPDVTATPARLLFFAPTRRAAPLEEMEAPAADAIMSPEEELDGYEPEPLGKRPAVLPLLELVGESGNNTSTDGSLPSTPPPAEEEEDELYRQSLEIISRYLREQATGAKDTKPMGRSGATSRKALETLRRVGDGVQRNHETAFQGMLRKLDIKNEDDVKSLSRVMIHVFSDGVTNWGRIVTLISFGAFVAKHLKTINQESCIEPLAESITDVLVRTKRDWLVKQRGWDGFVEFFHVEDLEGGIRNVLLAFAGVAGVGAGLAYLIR
Induced myeloid leukemia cell differentiation protein Mcl-1/Bcl-2-like protein 11, sequence (O43521 whole entry, further chain): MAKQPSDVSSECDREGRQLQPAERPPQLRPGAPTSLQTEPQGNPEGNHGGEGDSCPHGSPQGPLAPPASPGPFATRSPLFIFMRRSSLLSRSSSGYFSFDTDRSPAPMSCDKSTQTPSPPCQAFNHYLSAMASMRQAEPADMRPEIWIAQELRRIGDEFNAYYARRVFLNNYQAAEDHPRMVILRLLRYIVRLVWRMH
Assay [3] has as its target T1, Induced myeloid leukemia cell differentiation protein Mcl-1. Kind of assay: Binding affinity to N-terminal his6-tagged human recombinant Mcl-1 expressed in Escherichia coli assessed as binding constant (Koff) by SPR analysis. (In general: In SPR one partner is held on a chip, and binding of the other changes the refractive index at the surface.)
The target is the same in assay [4]. The experiment in a line: Binding affinity to N-terminal his6-tagged human recombinant Mcl-1 expressed in Escherichia coli assessed as binding constant (Kon) by SPR analysis.
Another assay has as its system MV4-11. The experiment in a line: Induction of apoptosis in human MV4-11 cells assessed as increase in caspase 3/7 activity measured after 6 hrs by Caspase-Glo 3/7 reagent based microplate reader analysis. To be noted: MV4-11, 6 h. The format is functional, cell-based.
Another assay has as its target Bcl-xL/BAK (Homo sapiens, UniProt Q07817). The experiment in a line: Inhibition of N-terminal GST-tagged Bcl-xL (1 to 209 residues) expressed in Escherichia coli /human Bak measured for 60 mins by TR-FRET based LanthaScreen Eu-Kinase binding assay.

pEC50, pIC50, pKd: −log10 of the molar value.

BCL2/BCL2L11, sequence (P10415 whole entry): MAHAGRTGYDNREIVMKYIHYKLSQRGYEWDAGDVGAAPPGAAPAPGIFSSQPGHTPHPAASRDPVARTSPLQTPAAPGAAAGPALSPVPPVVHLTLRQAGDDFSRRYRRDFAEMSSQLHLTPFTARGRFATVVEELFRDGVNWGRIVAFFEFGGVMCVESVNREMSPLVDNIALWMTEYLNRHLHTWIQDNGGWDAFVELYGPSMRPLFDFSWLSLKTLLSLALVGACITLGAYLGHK
BCL2/BCL2L11, sequence (O43521 whole entry, further chain): as the sequence (O43521 whole entry, further chain) above
T1 sequence (Q07820 whole entry): as the sequence (Q07820 whole entry) above
Bcl-xL/BAK, sequence (Q07817 whole entry, the tested form may be a part): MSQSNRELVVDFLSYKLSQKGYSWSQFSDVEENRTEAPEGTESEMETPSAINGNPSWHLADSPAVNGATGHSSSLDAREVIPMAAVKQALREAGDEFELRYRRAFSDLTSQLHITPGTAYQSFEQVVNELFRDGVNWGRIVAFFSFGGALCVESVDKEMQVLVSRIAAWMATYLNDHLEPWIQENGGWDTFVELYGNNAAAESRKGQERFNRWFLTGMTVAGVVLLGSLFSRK
Bcl-xL/BAK, sequence (Q16611 whole entry, further chain, the tested form may be a part): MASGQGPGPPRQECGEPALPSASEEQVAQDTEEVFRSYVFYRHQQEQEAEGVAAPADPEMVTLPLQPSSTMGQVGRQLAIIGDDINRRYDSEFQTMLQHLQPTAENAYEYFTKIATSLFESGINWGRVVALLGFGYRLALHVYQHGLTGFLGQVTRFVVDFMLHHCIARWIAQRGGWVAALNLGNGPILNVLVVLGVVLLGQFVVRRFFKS

As to `CN1CCCN[C@@H](Cc2ccc(S(C)(=O)=O)cc2)CC(=O)N[C@H]2CCc3ccccc3N(CC(=O)N[C@H](Cc3ccc(Cl)c(/C=C/c4ccccc4)c3)CC1=O)C2=O`, the pIC50 is < 6.00 at BCL2/BCL2L11 and 6.43 in assay [2]. Besides, in assay [1], the pKd was 5.92.
For `CNC(=O)C[C@@H](Cc1ccc(Cl)c(Cl)c1)NC(=O)CN1C(=O)[C@@H](NC(=O)C[C@@H](N)Cc2ccc(Br)cc2)CCc2ccccc21`, the pIC50 was 6.00 at BCL2/BCL2L11 and 5.83 in assay [2].
In the same order, the values of `CN(C)C(=O)C[C@@H](Cc1ccc(Cl)c(Cl)c1)NC(=O)CN1C(=O)[C@@H](NC(=O)C[C@@H](N)Cc2ccc(Cl)cc2)CCc2ccccc21` are 6.00 and 5.65.
As to `CN1CCCCCN[C@@H](Cc2ccc(Cl)cc2)CC(=O)N[C@H]2CCc3ccccc3N(CC(=O)N[C@H](Cc3ccc(Cl)c(Cl)c3)CC1=O)C2=O`, the pIC50 on BCL2/BCL2L11 was 6.00; in assay [2], 6.56. Moreover, the pKd in assay [1] is 6.28.
Turning to `CN1CCCN[C@@H](Cc2ccc(Cl)cc2)CC(=O)N[C@H]2CCc3ccccc3N(CC(=O)N[C@H](Cc3ccc(Cl)c(-c4cc5ccccc5o4)c3)CC1=O)C2=O`, the pIC50 at BCL2/BCL2L11 is < 6.00; in assay [2] it was 5.98. Further, the K was 0.314 s⁻¹ in assay [3] and 1.6 10^5/M.s in assay [4]. Besides, in assay [1], the pKd is 5.44.
`CN1CCCN[C@@H](Cc2ccc(S(C)(=O)=O)cc2)CC(=O)N[C@H]2CCc3ccccc3N(CC(=O)N[C@H](Cc3ccc(Cl)c(-c4cc5ccccc5o4)c3)CC1=O)C2=O`: the pIC50 is 6.00 at BCL2/BCL2L11 and 6.94 in assay [2]. The K in assay [3] was 0.336 s⁻¹; in assay [4], 9.5 10^5/M.s. Also, the pKd in assay [1] was 6.33.
Turning to `CN1CCCN[C@@H](Cc2ccc(Cl)cc2)CC(=O)N[C@H]2CCc3ccccc3N(CC(=O)N[C@H](Cc3ccc(Cl)c(Cl)c3)CC1=O)C2=O`, the pIC50 is 6.00 on BCL2/BCL2L11 and 6.81 in assay [2]. Further, the K in assay [3] is 0.212 s⁻¹; in assay [4] it was 7.9 10^5/M.s. In assay [1], the pKd is 6.43.
With `CNC(=O)C[C@@H](Cc1ccc(Cl)cc1)NC(=O)CN1C(=O)[C@@H](NC(=O)C[C@@H](N)Cc2ccccc2)CCc2ccccc21`, the results for the pIC50 (at BCL2/BCL2L11; in assay [2]) were 6.00 and 4.71, respectively.
For the compound `CNC(=O)C[C@@H](Cc1cccc(Cl)c1)NC(=O)CN1C(=O)[C@@H](NC(=O)C[C@@H](N)Cc2ccc(Cl)cc2)CCc2ccccc21`, the negative-log IC50 (pIC50) was < 6.00 on BCL2/BCL2L11 and 4.24 in assay [2].
As for `C[C@H]1CCN(C)C(=O)C[C@@H](Cc2ccc(Cl)c(Cl)c2)NC(=O)CN2C(=O)[C@H](CCc3ccccc32)NC(=O)C[C@H](Cc2ccc(Cl)cc2)N1`, the figures for the pIC50 (on BCL2/BCL2L11; in assay [2]) were 6.00 and 7.32, respectively. The negative logarithm of the Kd (pKd) in assay [1] was 6.92.
For the compound `CN1CCCN[C@@H](Cc2ccc(S(C)(=O)=O)cc2)CC(=O)N[C@H]2CCc3ccccc3N(CC(=O)N[C@H](Cc3ccc(Cl)c(CCc4ccccc4)c3)CC1=O)C2=O`, the pEC50 in the assay on MV4-11 was 5.42. Moreover, the pIC50 on Bcl-xL/BAK was < 4.00; on BCL2/BCL2L11, 5.26; in assay [2], > 8.52. Further, the K in assay [3] is 0.066 s⁻¹; in assay [4], 33 10^5/M.s. Moreover, the pKd in assay [1] is 7.70.
For the compound `CN1CCCCN[C@@H](Cc2ccc(Cl)cc2)CC(=O)N[C@H]2CCc3ccccc3N(CC(=O)N[C@H](Cc3ccc(Cl)c(Cl)c3)CC1=O)C2=O`, the results for the pIC50 (at BCL2/BCL2L11; in assay [2]) were 6.00 and 6.91, respectively. Further, the figures for the K in assay [3] and in assay [4] were 0.082 s⁻¹ and 2.9 10^5/M.s, respectively. For the same compound, the pKd in assay [1] was 6.54.
Take `CNC(=O)C[C@@H](Cc1ccc(Cl)c(Cc2ccccc2)c1)NC(=O)CN1C(=O)[C@@H](NC(=O)C[C@@H](N)Cc2ccc(Cl)cc2)CCc2ccccc21`: the figures for the pIC50 (at BCL2/BCL2L11; in assay [2]) were 6.00 and 5.04, respectively.
For `C[C@@H]1CCN(C)C(=O)C[C@@H](Cc2ccc(Cl)c(Cl)c2)NC(=O)CN2C(=O)[C@H](CCc3ccccc32)NC(=O)C[C@H](Cc2ccc(Cl)cc2)N1`, the pIC50 at BCL2/BCL2L11 was 6.00; in assay [2], 6.13. For the same compound, in assay [1], the pKd was 5.45.
On to `CN1CCCN[C@@H](Cc2ccc(S(C)(=N)=O)cc2)CC(=O)N[C@H]2CCc3ccccc3N(CC(=O)N[C@H](Cc3ccc(Cl)c(Cl)c3)CC1=O)C2=O` (stereo not given in full), for which the negative-log IC50 (pIC50) on BCL2/BCL2L11 is 6.00; in assay [2], 6.29. Besides, the K is 0.476 s⁻¹ in assay [3] and 10.2 10^5/M.s in assay [4]. Also, in assay [1], the pKd was 6.38.
Take `CN1CCCN[C@@H](Cc2ccc(S(C)(=O)=O)cc2)CC(=O)N[C@H]2CCc3ccccc3N(CC(=O)N[C@H](Cc3ccc(Cl)c(Cl)c3)CC1=O)C2=O`: the pIC50 is 6.00 at BCL2/BCL2L11 and 6.94 in assay [2]. In addition, in assay [1], the pKd was 7.00.
In the case of `CN1CCCN[C@@H](Cc2ccc(Cl)cc2)CC(=O)N[C@H]2CCc3ccccc3N(CC(=O)N[C@H](Cc3ccc(Cl)c(CCc4ccccc4)c3)CC1=O)C2=O`, the pIC50 was 6.00 on BCL2/BCL2L11 and 7.35 in assay [2]. In addition, the results for the K in assay [3] and in assay [4] were 0.073 s⁻¹ and 3.7 10^5/M.s, respectively. Besides, in assay [1], the pKd was 6.47.
Take `CNC(=O)C[C@@H](Cc1ccc(Cl)cc1)NC(=O)CN1C(=O)[C@@H](NC(=O)C[C@@H](N)Cc2ccc(Cl)cc2)CCc2ccccc21`: the pIC50 at BCL2/BCL2L11 was 6.00; in assay [2] it was 4.90.
Regarding `CN1CCCN[C@@H](Cc2ccc(S(C)(=O)=O)cc2)CC(=O)N[C@H]2CCc3ccccc3N(CC(=O)N[C@H](Cc3ccc(Cl)c(-c4ccc5ccccc5c4)c3)CC1=O)C2=O`, the pIC50 on BCL2/BCL2L11 is 6.00; in assay [2], 6.95. The K in assay [3] was 0.213 s⁻¹; in assay [4], 6.6 10^5/M.s. For the same compound, the pKd in assay [1] was 6.54.
With `CN1CCCN[C@@H](Cc2ccc(Cl)cc2)CC(=O)N[C@H]2CCc3ccccc3N(CC(=O)N[C@H](Cc3ccc(Cl)c(/C=C/c4ccccc4)c3)CC1=O)C2=O`, the negative-log IC50 (pIC50) at BCL2/BCL2L11 was 6.00; in assay [2] it was 5.65. The negative-log Kd (pKd) in assay [1] was < 5.00.
Consider `CNC(=O)C[C@@H](Cc1ccc(Cl)c(-c2ccc(Cl)c(C)c2)c1)NC(=O)CN1C(=O)[C@@H](NC(=O)C[C@@H](N)Cc2ccc(Cl)cc2)CCc2ccccc21`, for which the pIC50 was < 6.00 at BCL2/BCL2L11 and 5.71 in assay [2].
For `O=C1C[C@@H](Cc2ccc(Cl)c(Cl)c2)NC(=O)CN2C(=O)[C@H](CCc3ccccc32)NC(=O)C[C@H](Cc2ccc(Cl)cc2)NCCCN1`, the negative-log IC50 (pIC50) was < 6.00 on BCL2/BCL2L11 and 5.28 in assay [2]. Moreover, the K in assay [3] is 0.158 s⁻¹; in assay [4], 0.53 10^5/M.s. The pKd in assay [1] was 5.35.
For the compound `CNC(=O)C[C@@H](Cc1ccc(Cl)c(Cl)c1)NC(=O)CN1C(=O)[C@@H](NC(=O)C[C@@H](N)Cc2ccc(Cl)cc2)CCc2ccccc21`, the pIC50 on BCL2/BCL2L11 is 6.00; in assay [2], 5.70.
In the same order, the values of `CNC(=O)C[C@@H](Cc1ccc(Cl)c(CCc2ccccc2)c1)NC(=O)CN1C(=O)[C@@H](NC(=O)C[C@@H](N)Cc2ccc(S(C)(=O)=O)cc2)CCc2ccccc21` are 6.00 and 6.88.
`CN1CCCN[C@@H](Cc2ccc(S(N)(=O)=O)cc2)CC(=O)N[C@H]2CCc3ccccc3N(CC(=O)N[C@H](Cc3ccc(Cl)c(Cl)c3)CC1=O)C2=O`: the pIC50 on BCL2/BCL2L11 was 6.00; in assay [2], 6.25. Also, in assay [1], the pKd was 6.14.
Consider `CN1CCCN[C@@H](Cc2ccc(S(C)(=O)=O)cc2)CC(=O)N[C@H]2CCc3ccccc3N(CC(=O)N[C@H](Cc3ccc(Cl)c(C#Cc4ccccc4)c3)CC1=O)C2=O`, for which the figures for the pIC50 (at BCL2/BCL2L11; in assay [2]) were 6.00 and 7.33, respectively.
Turning to `CCN[C@H](CC(=O)N[C@H]1CCc2ccccc2N(CC(=O)N[C@@H](CC(=O)NC)Cc2ccc(Cl)c(Cl)c2)C1=O)Cc1ccc(Cl)cc1`, the pIC50 was 6.00 on BCL2/BCL2L11 and 5.68 in assay [2].
On to `CNC(=O)C[C@@H](Cc1ccc(Cl)c(CCc2ccccc2)c1)NC(=O)CN1C(=O)[C@@H](NC(=O)C[C@@H](N)Cc2ccc(Cl)cc2)CCc2ccccc21`, for which the pIC50 is 6.00 at BCL2/BCL2L11 and 6.71 in assay [2].
Regarding `CN1CCCN[C@@H](Cc2ccc([S+](C)[O-])cc2)CC(=O)N[C@H]2CCc3ccccc3N(CC(=O)N[C@H](Cc3ccc(Cl)c(Cl)c3)CC1=O)C2=O` (stereo not given in full), the pIC50 at BCL2/BCL2L11 was 6.00; in assay [2], 6.13. Also, the pKd in assay [1] was 6.11.

Usually pIC50 stands for the negative decadic logarithm of the IC50, by convention in mol/L. One may read the pKd as the negative decadic logarithm of the Kd, by convention in mol/L. Broadly, the pEC50 is −log10 of the EC50, conventionally taken in molar units.
